In BigSolDB 2.1:

CC(=O)C1=CC[C@H]2[C@@H]3CCC4=CC(=O)C=C[C@]4(C)[C@H]3[C@@H](O)C[C@]12C
solubility (mole fraction) (in acetone, 298.15 K): 0.00192 | solubility (mole fraction) (in acetone, 303.15 K): 0.00215 | solubility (mole fraction) (in acetone, 308.15 K): 0.00243 | solubility (mole fraction) (in acetone, 313.15 K): 0.00275 | solubility (mole fraction) (in acetone, 318.15 K): 0.00303 | solubility (mole fraction) (in acetone, 323.15 K): 0.00351 | solubility (mole fraction) (in acetone, 328.15 K): 0.0038 | solubility (mole fraction) (in ethanol, 298.15 K): 0.00213 | solubility (mole fraction) (in ethanol, 303.15 K): 0.00252 | solubility (mole fraction) (in ethanol, 308.15 K): 0.00291 | solubility (mole fraction) (in ethanol, 313.15 K): 0.00335 | solubility (mole fraction) (in ethanol, 318.15 K): 0.00395 | solubility (mole fraction) (in ethanol, 323.15 K): 0.00461 | solubility (mole fraction) (in ethanol, 328.15 K): 0.00541 | solubility (mole fraction) (in ethanol, 333.15 K): 0.00625 | solubility (mole fraction) (in ethanol, 338.15 K): 0.00722 | solubility (mole fraction) (in ethanol, 343.15 K): 0.00844 | solubility (mole fraction) (in ethanol, 348.15 K): 0.0097
